The record followed here is EP2518071A1, “Imidazopyridine derivatives as PI3K inhibitors” (Almirall, S.A., priority 2011, dated 2012).

The target in the experiment is T1, PI3Kδ (PI3Kd) (Homo sapiens, UniProt O00329).
T1 construct: purchased Millipore
T1 sequence (O00329 whole entry): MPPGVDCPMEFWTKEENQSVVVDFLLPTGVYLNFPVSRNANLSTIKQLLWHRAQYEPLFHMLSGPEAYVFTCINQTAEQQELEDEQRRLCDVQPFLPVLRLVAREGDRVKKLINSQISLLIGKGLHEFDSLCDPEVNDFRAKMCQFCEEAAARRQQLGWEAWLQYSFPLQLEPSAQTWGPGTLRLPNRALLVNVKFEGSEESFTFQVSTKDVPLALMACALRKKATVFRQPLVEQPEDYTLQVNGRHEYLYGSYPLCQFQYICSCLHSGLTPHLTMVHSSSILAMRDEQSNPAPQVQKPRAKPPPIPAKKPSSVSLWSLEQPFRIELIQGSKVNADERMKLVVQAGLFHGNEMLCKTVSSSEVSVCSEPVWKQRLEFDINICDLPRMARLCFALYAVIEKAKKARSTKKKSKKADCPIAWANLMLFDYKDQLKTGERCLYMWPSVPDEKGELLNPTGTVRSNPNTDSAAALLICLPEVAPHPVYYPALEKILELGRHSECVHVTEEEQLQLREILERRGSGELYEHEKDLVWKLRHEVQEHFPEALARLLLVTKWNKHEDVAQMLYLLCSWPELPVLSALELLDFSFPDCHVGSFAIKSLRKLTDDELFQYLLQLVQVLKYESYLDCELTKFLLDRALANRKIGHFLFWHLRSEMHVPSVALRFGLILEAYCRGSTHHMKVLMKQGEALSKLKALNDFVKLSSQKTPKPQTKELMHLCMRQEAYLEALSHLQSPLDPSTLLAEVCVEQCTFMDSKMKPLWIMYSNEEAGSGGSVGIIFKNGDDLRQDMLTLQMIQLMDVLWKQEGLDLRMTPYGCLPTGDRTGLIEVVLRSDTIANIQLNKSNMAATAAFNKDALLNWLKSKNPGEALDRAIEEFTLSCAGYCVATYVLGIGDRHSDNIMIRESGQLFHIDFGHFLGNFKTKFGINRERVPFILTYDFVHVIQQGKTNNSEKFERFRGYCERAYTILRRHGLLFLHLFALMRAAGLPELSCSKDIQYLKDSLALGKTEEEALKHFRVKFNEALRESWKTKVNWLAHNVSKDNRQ
T1 sequence (P27986 whole entry partner): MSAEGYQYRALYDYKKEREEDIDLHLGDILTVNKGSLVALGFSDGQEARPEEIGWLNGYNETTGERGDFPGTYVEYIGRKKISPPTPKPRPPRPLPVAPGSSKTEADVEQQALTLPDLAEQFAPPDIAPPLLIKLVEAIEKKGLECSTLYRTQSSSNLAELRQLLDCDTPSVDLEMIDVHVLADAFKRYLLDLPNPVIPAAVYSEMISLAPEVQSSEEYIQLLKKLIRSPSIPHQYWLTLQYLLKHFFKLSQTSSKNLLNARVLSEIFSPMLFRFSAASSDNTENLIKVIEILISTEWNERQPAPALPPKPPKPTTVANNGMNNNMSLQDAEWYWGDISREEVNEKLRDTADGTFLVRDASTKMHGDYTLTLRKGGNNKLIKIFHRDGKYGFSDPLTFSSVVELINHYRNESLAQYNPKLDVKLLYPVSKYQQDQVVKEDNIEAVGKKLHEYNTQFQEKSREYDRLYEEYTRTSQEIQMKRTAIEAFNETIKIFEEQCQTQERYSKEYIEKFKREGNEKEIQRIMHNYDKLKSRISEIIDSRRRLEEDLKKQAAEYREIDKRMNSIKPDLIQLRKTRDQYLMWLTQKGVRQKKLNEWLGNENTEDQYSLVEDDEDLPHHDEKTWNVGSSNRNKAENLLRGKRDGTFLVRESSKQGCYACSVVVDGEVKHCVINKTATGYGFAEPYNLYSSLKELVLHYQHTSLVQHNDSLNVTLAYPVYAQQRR
Briefly: PI3K HTRF enzymatic inhibition assay (cell-free, Millipore kit), PI3Kd isoform. The format is biochemical. As to conditions: recombinant PI3Kd 0.60 nM, PIP2 2 µM, ATP 20 µM, incubation 8 minutes. The method, then: Compounds were screened for their ability to inhibit PI3Kα (PI3Ka), PI3Kβ (PI3Kb), PI3Kδ (PI3Kd) and PI3Kγ (PI3Kg) using a cell-free based P13K HTRF™ assay (Millipore, ref. #33-017) All reagents to perform the reactions were prepared according to the manufacturer protocol. All PI3K enzymes were recombinant and were purchased at Millipore.
All four assays were performed according to the following procedure: • 1) Dilution curves of compounds were done in 100% DMSO and dispensed in a reservoir plate, typically from column 2 to 11. Column 1 and 12 were used for the negative controls (100% inhibition using a reference PI3K inhibitor for the four isoforms) and the positive controls (0% inhibition using dimethyl sulfoxide (DMSO) only). • 2) Mix of Phosphoinositide 3-kinase (PI3K) + Phosphatidylinositol 4,5-bisphosphate (PIP2) was diluted in buffer (supplied with the kit) and plated in a medium binding black 96-well plate (Greiner ref. #675076) PI3Ka was diluted at 0.25 nM with PIP2 at 2 µM; PI3Kb was diluted at 0.50 nM with PIP2 at 5 µM; PI3Kd was diluted at 0.60 nM with PIP2 at 2 µM and PI3Kg was diluted at 0.30 nM with PIP2 at 10 µM. These concentrations were final in the assay. • 3) A reservoir plate containing Adenosine TriPhosphate (ATP) diluted in the Millipore kit buffer was prepared for each isoform. The final concentration of ATP in the assay was 10 µM, 15 µM, 20 µM and 10 µM for PI3Ka, PI3Kb, PI3Kd and PI3Kg respectively. • 4) Reactions were started by addition to the PI3K+PIP2 plates of the ATP and compounds simultaneously. Incubation was done for 8 minutes (for all four isoforms) then the reaction was stopped by addition of the Stop solution. The Detection solution was added. These solutions were prepared previously according to the kit specifications. The plates were then incubated overnight at RT before reading the signal in an Envision (PerkinElmer), with excitation at 340 nm and emissions at 620 and 665 nm. • 5) Data obtained from the compound curves were normalized in respect to the negative and positive controls, and then fitted by a 4-parameter log curve in ActivityBase (IDBS) in order to determine their potency.
Broadly, the IC50 is the concentration needed to halve the response being measured. As to `C[C@H](Nc1nc(N)nc2[nH]cnc12)c1nc2cccnc2n1-c1ccccc1` [Example 9, (S)-N6-(1-(3-Phenyl-3H-imidazo[4,5-b]pyridin-2-yl)ethyl)-9H-purine-2,6-diamine], the IC50 amounted to 85.9 nM.

As for `COc1ccc2nc([C@H](C)Nc3ncnc4[nH]cnc34)n(-c3ccccc3)c2n1` [Example 10, (S)-N-(1-(5-Methoxy-3-phenyl-3H-imidazo[4,5-b]pyridin-2-yl)ethyl)-9H-purin-6-amine], the IC50 was 31.6 nM.

As to `C[C@H](Nc1ncnc2[nH]cnc12)c1nc2cccnc2n1-c1cc(F)cc(F)c1` [Example 12, (S)-N-(1-(3-(3,5-Difluorophenyl)-3H-imidazo[4,5-b]pyridin-2-yl)ethyl)-9H-purin-6-amine], the IC50 is 188 nM.

For the compound `CC[C@H](Nc1ncnc2[nH]cnc12)c1nc2ccc(OC)nc2n1-c1ccccc1` [Example 14, (S)-N-(1-(5-Methoxy-3-phenyl-3H-imidazo[4,5-b]pyridin-2-yl)propyl)-9H-purin-6-amine], the IC50 came out at 14.4 nM.

`COc1ccc2nc([C@H](C)Nc3ncnc4[nH]cnc34)n(-c3cc(F)cc(F)c3)c2n1` [Example 15, (S)-N-(1-(3-(3,5-Difluorophenyl)-5-methoxy-3H-imidazo[4,5-b]pyridin-2-yl)ethyl)-9H-purin-6-amine]: the IC50 stood at 10.9 nM.

Consider `C[C@H](Nc1ncnc(N)c1C#N)c1nc2cccnc2n1-c1ccccc1` [Example 19, (S)-4-Amino-6-(1-(3-phenyl-3H-imidazo[4,5-b]pyridin-2-yl)ethylamino)pyrimidine-5-carbonitrile], for which the IC50 turned out to be 132 nM.

As for `COc1ccc2nc([C@H](C)Nc3ncnc(N)c3C#N)n(-c3ccccc3)c2n1` [Example 21, (S)-4-Amino-6-(1-(5-methoxy-3-phenyl-3H-imidazo[4,5-b]pyridin-2-yl)ethylamino)pyrimidine-5-carbonitrile], the half-maximal inhibitory concentration (IC50) was 22.2 nM.

With `Cc1ccc2nc([C@H](C)Nc3ncnc(N)c3C#N)n(-c3ccccc3)c2n1` [Example 25, (S)-4-Amino-6-(1-(5-methyl-3-phenyl-3H-imidazo[4,5-b]pyridin-2-yl)ethylamino)pyrimidine-5-carbonitrile], the IC50 came to 52.1 nM.

For `Cc1ccc2nc([C@H](C)Nc3ccnc4ccnn34)n(-c3ccccc3)c2n1` [Example 26, (S)-N-(1-(5-Methyl-3-phenyl-3H-imidazo[4,5-b]pyridin-2-yl)ethyl)pyrazolo[1,5-a]pyrimidin-7-amine], the concentration for half-maximal inhibition (IC50) was 693 nM.

In the case of `C[C@H](Nc1ncnc2[nH]cnc12)c1nc2cc(F)cnc2n1-c1ccccc1` [Example 37, N-[(1S)-1-(6-Fluoro-3-phenyl-3H-imidazo[4,5-b]pyridin-2-yl)ethyl]-9H-purin-6-amine], the IC50 is 165 nM.

As for `C[C@H](Nc1ncnc2[nH]cnc12)c1nc2cccnc2n1-c1ccccc1Cl` [Example 39, N-{(1S)-1-[3-(2-Chlorophenyl)-3H-imidazo[4,5-b]pyridin-2-yl]ethyl}-9H-purin-6-amine], the half-maximal inhibitory concentration (IC50) worked out at 215 nM.

For the compound `C[C@H](Nc1ncnc2[nH]cnc12)c1nc2ncccc2n1-c1ccccc1` [Example 43, (S)-N-(1-(1-Phenyl-1H-imidazo[4,5-b]pyridin-2-yl)ethyl)-9H-purin-6-amine], the concentration for half-maximal inhibition (IC50) was 1800 nM.
